Patent publication US10160743B2, “Sulphamoylthiophenamide derivatives and the use thereof as medicaments for the treatment of hepatitis B” (Janssen Sciences Ireland UC, priority 2013, dated 2018)

Experiments:
[1] = test system: HBV; test: Anti-HBV activity, HepG2.2.15 cell line, HBV DNA from secreted virions by realtime PCR; assay type: cell-based, Hepatitis B virus; conditions: Hepatitis B virus, HepG2.2.15, 144 h, HepG2.2.15 cells, 6 days of treatment
[2] = Cytotoxicity in HepG2 cells, Resazurin assay; assay type: cell-based; conditions: human, incubated for 4 days, Resazurin viability
[3] = test system: HBV; test: Anti-HBV activity, HepG2.117 cell line (Tet-off), intracellular HBV DNA by realtime PCR; assay type: cell-based, Hepatitis B virus; conditions: Hepatitis B virus, HepG2.117, 72 h, HepG2.117 cells, 3 days of treatment

SMILES: Cc1sc(S(=O)(=O)NC2(C)COC2)cc1C(=O)Nc1ccc(F)c(Cl)c1 [Compound 28, N-(3-Chloro-4-fluorophenyl)-2-methyl-5-[(3-methyloxetan-3-yl)-sulfamoyl]thiophene-3-carboxamide]
- EC50 [1]: 34 nM
- CC50 at 4 days [2]: > 25000 nM
- EC50 [3]: 41 nM

SMILES: Cc1sc(S(=O)(=O)NC2(C)COC2)cc1C(=O)Nc1ccc(F)c(Br)c1 [Compound 29, N-(3-Bromo-4-fluorophenyl)-2-methyl-5-[(3-methyloxetan-3-yl)-sulfamoyl]thiophene-3-carboxamide]
- EC50 [1]: 120 nM
- CC50 at 4 days [2]: 13200 nM
- EC50 [3]: 120 nM

SMILES: COC(=O)C(C)(C)NS(=O)(=O)c1cc(C(=O)Nc2ccc(F)c(F)c2)c(C)s1 [Compound 30, Methyl N-({4-[(3,4-difluorophenyl)carbamoyl]-5-methylthiophen-2-yl}sulfonyl)-2-methylalaninate]
- EC50 [1]: > 1000 nM
- CC50 at 4 days [2]: > 25000 nM
- EC50 [3]: 790 nM

SMILES: COC(=O)C(C)(C)NS(=O)(=O)c1cc(C(=O)Nc2ccc(F)c(C)c2)c(C)s1 [Compound 31, Methyl N-({4-[(4-fluoro-3-methylphenyl)carbamoyl]-5-methylthiophen-2-yl}sulfonyl)-2-methylalaninate]
- EC50 [1]: 520 nM
- CC50 at 4 days [2]: > 25000 nM
- EC50 [3]: 170 nM

SMILES: Cc1sc(S(=O)(=O)NC(C)(C)C(N)=O)cc1C(=O)Nc1ccc(F)c(F)c1 [Compound 32, 5-[(2-Amino-1,1-dimethyl-2-oxoethyl)sulfamoyl]-N-(3,4-difluorophenyl)-2-methylthiophene-3-carboxamide]
- EC50 [1]: 220 nM
- CC50 at 4 days [2]: > 25000 nM
- EC50 [3]: 300 nM

SMILES: Cc1cc(NC(=O)c2cc(S(=O)(=O)NC(C)(C)C(N)=O)sc2C)ccc1F [Compound 33, 5-[(2-Amino-1,1-dimethyl-2-oxoethyl)sulfamoyl]-N-(4-fluoro-3-methylphenyl)-2-methylthiophene-3-carboxamide]
- EC50 [1]: 140 nM
- CC50 at 4 days [2]: > 25000 nM
- EC50 [3]: 130 nM

SMILES: Cc1sc(S(=O)(=O)NC2(C(F)(F)F)CC2)cc1C(=O)Nc1ccc(F)c(F)c1 [Compound 34, N-(3,4-Difluorophenyl)-2-methyl-5-{[1-(trifluoromethyl)cyclopropyl]-sulfamoyl}thiophene-3-carboxamide]
- EC50 [1]: 100 nM
- CC50 at 4 days [2]: 17700 nM
- EC50 [3]: 130 nM

SMILES: Cc1cc(NC(=O)c2cc(S(=O)(=O)NC3(C(F)(F)F)CC3)sc2C)ccc1F [Compound 35, N-(4-Fluoro-3-methylphenyl)-2-methyl-5-{[1-(trifluoromethyl)cyclo-propyl]sulfamoyl}thiophene-3-carboxamide]
- EC50 [1]: 60 nM
- CC50 at 4 days [2]: > 25000 nM
- EC50 [3]: 40 nM

SMILES: Cc1sc(S(=O)(=O)N[C@H](C)C(F)(F)F)cc1C(=O)Nc1cc(F)c(F)c(Cl)c1 [Compound 36, N-(3-Chloro-4,5-difluorophenyl)-2-methyl-5-{[(1R)-2,2,2-trifluoro-1-methylethyl]sulfamoyl}thiophene-3-carboxamide]
- EC50 [1]: 140 nM
- CC50 at 4 days [2]: 7100 nM
- EC50 [3]: 160 nM

SMILES: Cc1sc(S(=O)(=O)N[C@@H](C)C(F)(F)F)cc1C(=O)Nc1cc(F)c(F)c(Cl)c1 [Compound 37, N-(3-Chloro-4,5-difluorophenyl)-2-methyl-5-{[(1S)-2,2,2-trifluoro-1-methylethyl]sulfamoyl}thiophene-3-carboxamide]
- EC50 [1]: 160 nM
- CC50 at 4 days [2]: 8200 nM
- EC50 [3]: 220 nM

SMILES: Cc1sc(S(=O)(=O)N[C@H](C)C(F)(F)F)cc1C(=O)Nc1ccc(F)c(Cl)c1 [Compound 38, N-(3-Chloro-4-fluorophenyl)-2-methyl-5-{[(1R)-2,2,2-trifluoro-1-methylethyl]sulfamoyl}thiophene-3-carboxamide]
- EC50 [1]: 40 nM
- CC50 at 4 days [2]: 14400 nM
- EC50 [3]: 80 nM

SMILES: Cc1cc(NC(=O)c2cc(S(=O)(=O)N[C@H](C)C(F)(F)F)sc2C)ccc1F [Compound 39, N-(4-Fluoro-3-methylphenyl)-2-methyl-5-{[(1R)-2,2,2-trifluoro-1-methylethyl]sulfamoyl}thiophene-3-carboxamide]
- EC50 [1]: 70 nM
- CC50 at 4 days [2]: > 25000 nM
- EC50 [3]: 60 nM
